Experimental data: the NIST ThermoML archive (doi:10.1021/je050085p)

Legend:
[1] = 101.33 kPa, Liquid
[2] = refractive index (Na D-line) (dimensionless); settings: 101.33 kPa, Liquid, Standard Abbe refractometry
[3] = xn = mol fraction of the nth substance listed; settings: 308.15 K, 101 kPa, Liquid
[4] = refractive index (Na D-line) (dimensionless); xn = mol fraction of the nth substance listed; settings: 308.15 K, 101 kPa, Liquid, Standard Abbe refractometry
[5] = excess molar enthalpy (molar enthalpy of mixing); xn = mol fraction of the nth substance listed; settings: 308.15 K, 101 kPa, Liquid, Flow calorimetry

OCc1ccccc1 [benzenemethanol]
Settings | mass density, [1] [kg/m3] | refractive index, [2]
298.15 K | 1041.65 | 1.5377
308.15 K | 1033.64 | 1.535

OCc1ccccc1 [benzenemethanol] + COc1ccccc1
Settings | excess molar enthalpy [kcal/mol] | mass density [kg/m3] | refractive index
[3], x2 = 0.0519 | – | 1030.85 | –
[3], x2 = 0.0898 | – | 1028.81 | –
[3], x2 = 0.1854 | – | 1023.62 | –
[3], x2 = 0.2883 | – | 1018 | –
[3], x2 = 0.3766 | – | 1013.19 | –
[3], x2 = 0.4911 | – | 1006.94 | –
[3], x2 = 0.5916 | – | 1001.47 | –
[3], x2 = 0.6747 | – | 996.96 | –
[3], x2 = 0.7745 | – | 991.59 | –
[3], x2 = 0.9039 | – | 984.73 | –
[3], x2 = 0.9448 | – | 982.58 | –
[3], x2 = 0.9723 | – | 981.14 | –
[4], x2 = 0.0519 | – | – | 1.5335
[4], x2 = 0.0898 | – | – | 1.5324
[4], x2 = 0.1854 | – | – | 1.5298
[4], x2 = 0.2883 | – | – | 1.527
[4], x2 = 0.3766 | – | – | 1.5247
[4], x2 = 0.4911 | – | – | 1.5218
[4], x2 = 0.5916 | – | – | 1.5193
[4], x2 = 0.6747 | – | – | 1.5173
[4], x2 = 0.7745 | – | – | 1.5149
[4], x2 = 0.9039 | – | – | 1.5118
[4], x2 = 0.9448 | – | – | 1.5108
[4], x2 = 0.9723 | – | – | 1.5102
[5], x2 = 0.038 | 0.022 | – | –
[5], x2 = 0.0732 | 0.0461 | – | –
[5], x2 = 0.1059 | 0.0655 | – | –
[5], x2 = 0.1364 | 0.0877 | – | –
[5], x2 = 0.1916 | 0.121 | – | –
[5], x2 = 0.2401 | 0.148 | – | –
[5], x2 = 0.3216 | 0.182 | – | –
[5], x2 = 0.3871 | 0.203 | – | –
[5], x2 = 0.4866 | 0.232 | – | –
[5], x2 = 0.5872 | 0.249 | – | –
[5], x2 = 0.6547 | 0.254 | – | –
[5], x2 = 0.7398 | 0.252 | – | –
[5], x2 = 0.7913 | 0.24 | – | –
[5], x2 = 0.8505 | 0.211 | – | –
[5], x2 = 0.8835 | 0.185 | – | –
[5], x2 = 0.9191 | 0.146 | – | –
[5], x2 = 0.9578 | 0.0877 | – | –

CCOc1ccccc1 [ethoxybenzene]
Settings | mass density, [1] [kg/m3] | refractive index, [2]
298.15 K | – | 1.5058
308.15 K | 950.86 | 1.5002

CCOc1ccccc1 [ethoxybenzene] + OCCc1ccccc1
Settings | excess molar enthalpy [kcal/mol] | mass density [kg/m3] | refractive index
[3], x1 = 0.0656 | – | 1004.96 | –
[3], x1 = 0.1079 | – | 1002.5 | –
[3], x1 = 0.1726 | – | 998.71 | –
[3], x1 = 0.3041 | – | 990.99 | –
[3], x1 = 0.3803 | – | 986.52 | –
[3], x1 = 0.4826 | – | 980.37 | –
[3], x1 = 0.5243 | – | 978.09 | –
[3], x1 = 0.5904 | – | 974.22 | –
[3], x1 = 0.6819 | – | 968.87 | –
[3], x1 = 0.7929 | – | 962.44 | –
[3], x1 = 0.8881 | – | 957 | –
[3], x1 = 0.9469 | – | 953.74 | –
[3], x1 = 0.9881 | – | 951.5 | –
[4], x1 = 0.0656 | – | – | 1.5252
[4], x1 = 0.1079 | – | – | 1.524
[4], x1 = 0.1726 | – | – | 1.5223
[4], x1 = 0.3041 | – | – | 1.5187
[4], x1 = 0.3803 | – | – | 1.5166
[4], x1 = 0.4826 | – | – | 1.5137
[4], x1 = 0.5243 | – | – | 1.5126
[4], x1 = 0.5904 | – | – | 1.5108
[4], x1 = 0.6819 | – | – | 1.5083
[4], x1 = 0.7929 | – | – | 1.5054
[4], x1 = 0.8881 | – | – | 1.5029
[4], x1 = 0.9469 | – | – | 1.5014
[4], x1 = 0.9881 | – | – | 1.5005
[5], x1 = 0.0378 | 0.027 | – | –
[5], x1 = 0.0728 | 0.0534 | – | –
[5], x1 = 0.1054 | 0.0772 | – | –
[5], x1 = 0.1358 | 0.0979 | – | –
[5], x1 = 0.1907 | 0.135 | – | –
[5], x1 = 0.2391 | 0.159 | – | –
[5], x1 = 0.3203 | 0.193 | – | –
[5], x1 = 0.3858 | 0.218 | – | –
[5], x1 = 0.4852 | 0.245 | – | –
[5], x1 = 0.5857 | 0.268 | – | –
[5], x1 = 0.6534 | 0.275 | – | –
[5], x1 = 0.7388 | 0.273 | – | –
[5], x1 = 0.7904 | 0.264 | – | –
[5], x1 = 0.8498 | 0.232 | – | –
[5], x1 = 0.8829 | 0.204 | – | –
[5], x1 = 0.9188 | 0.161 | – | –
[5], x1 = 0.9577 | 0.0965 | – | –

CCOc1ccccc1 [ethoxybenzene] + OCc1ccccc1
Settings | excess molar enthalpy [kcal/mol] | mass density [kg/m3] | refractive index
[3], x1 = 0.0642 | – | 1027.61 | –
[3], x1 = 0.0826 | – | 1025.86 | –
[3], x1 = 0.1663 | – | 1018.18 | –
[3], x1 = 0.1751 | – | 1017.38 | –
[3], x1 = 0.2585 | – | 1009.89 | –
[3], x1 = 0.3363 | – | 1003.06 | –
[3], x1 = 0.4598 | – | 992.51 | –
[3], x1 = 0.544 | – | 985.53 | –
[3], x1 = 0.6369 | – | 978.04 | –
[3], x1 = 0.7572 | – | 968.65 | –
[3], x1 = 0.8621 | – | 960.77 | –
[3], x1 = 0.9361 | – | 955.37 | –
[4], x1 = 0.0642 | – | – | 1.5322
[4], x1 = 0.0826 | – | – | 1.5313
[4], x1 = 0.1663 | – | – | 1.5279
[4], x1 = 0.1751 | – | – | 1.5275
[4], x1 = 0.2585 | – | – | 1.5244
[4], x1 = 0.3363 | – | – | 1.5216
[4], x1 = 0.4598 | – | – | 1.5172
[4], x1 = 0.544 | – | – | 1.5142
[4], x1 = 0.6369 | – | – | 1.5111
[4], x1 = 0.7572 | – | – | 1.5071
[4], x1 = 0.8621 | – | – | 1.5039
[4], x1 = 0.9361 | – | – | 1.5018
[5], x1 = 0.0328 | 0.0247 | – | –
[5], x1 = 0.0636 | 0.0454 | – | –
[5], x1 = 0.0924 | 0.0677 | – | –
[5], x1 = 0.1195 | 0.0854 | – | –
[5], x1 = 0.1691 | 0.118 | – | –
[5], x1 = 0.2135 | 0.147 | – | –
[5], x1 = 0.2893 | 0.177 | – | –
[5], x1 = 0.3517 | 0.205 | – | –
[5], x1 = 0.4488 | 0.232 | – | –
[5], x1 = 0.5499 | 0.252 | – | –
[5], x1 = 0.6196 | 0.262 | – | –
[5], x1 = 0.7095 | 0.266 | – | –
[5], x1 = 0.7651 | 0.259 | – | –
[5], x1 = 0.8301 | 0.232 | – | –
[5], x1 = 0.8669 | 0.209 | – | –
[5], x1 = 0.907 | 0.169 | – | –
[5], x1 = 0.9513 | 0.104 | – | –
